The experiment relates to Plasmodium berghei. Briefly: Luciferase/luciferin-expressing antifolate-resistant parasites were used to infect a culture of HepG2 cells that were pre-incubated with compounds. Infected hepatocytes emit light due to the luciferase reaction. Assay results are presented as the percent inhibition of light emission compared to control. […]. The settings on record: sporozoite; for IC90: read-out: LUCIFERASE INFECTION ASSAY - IC90. It counts as functional.

[1] abbreviates: read-out: LUCIFERASE INFECTION ASSAY - IC50.

Where only a bound is given, the exact number is not on record here.

Take `Cc1nn(-c2ccccc2)c2nc(-c3cccs3)cc(C(=O)OC(C)C(=O)N3CCCc4ccccc43)c12` (centres undefined): the IC90 is over 10 µM. Moreover, the IC50 (FFLUC_HILL_SLOPE 2.63, FFLUC_R_SQUARED 0.683, PBLUC_HILL_SLOPE 9.18, PBLUC_R_SQUARED 0.333, read-out: LUCIFERASE INFECTION ASSAY - IC50) was 8.32 µM.

With `CCOC(=O)NC(=O)COC(=O)CCc1ccc(OC)cc1`, the IC90 was over 10 µM. Further, the IC50 under setting [1] was over 10 µM.

For `COC(=O)c1c(OC)ccc(NC(=O)NC(=O)c2c(OC)c(Cl)cc(Cl)c2OC)c1OC`, the IC90 stood at 2.63 µM. Besides, for the setting “HEPG2TOX_HILL_SLOPE 2.83, HEPG2TOX_R_SQUARED 0.683, PBLUC_HILL_SLOPE 11.5, PBLUC_R_SQUARED 0.299, read-out: LUCIFERASE INFECTION ASSAY - IC50”, the IC50 was found to be 2.18 µM.

As for `COc1ccc(OCCn2nc(-c3cccs3)c3ccccc3c2=O)cc1`, the IC90 was over 10 µM. In addition, under setting [1], the IC50 was determined as 3.71 µM.

Consider `COc1ccc(OC)c(NC(=O)c2cc(-c3ccccc3)nn2-c2ccccc2)c1`, for which the IC90 is over 10 µM. Further, the IC50 under setting [1] was over 10 µM.

As to `Clc1cc(Cl)cc(-c2nnc(Sc3nc(-c4cccs4)ns3)[nH]2)c1`, the IC90 was over 8 µM. Moreover, the IC50 under setting [1] was over 8 µM.

As to `COC(=O)c1cc(C(=O)OC)cc(-n2c(C)cc(C(=O)Cn3ncc(Cl)c(Cl)c3=O)c2C)c1`, the concentration for an effect of 90% (IC90) came out at 4.48 µM. In addition, the IC50 (FFLUC_HILL_SLOPE 11.1, FFLUC_R_SQUARED 0.501, HEPG2TOX_HILL_SLOPE 4.27, HEPG2TOX_R_SQUARED 0.789, PBLUC_HILL_SLOPE 11.5, PBLUC_R_SQUARED 0.682, read-out: LUCIFERASE INFECTION ASSAY - IC50) was determined as 3.7 µM.

Regarding `CC(C)Cc1ccc(C(C)c2nn3c(-c4ccco4)nnc3s2)cc1` (centres undefined), the IC90 was 0.257 µM. Further, the IC50 (HEPG2TOX_HILL_SLOPE 0.343, HEPG2TOX_R_SQUARED 0.467, PBLUC_HILL_SLOPE 2.04, PBLUC_R_SQUARED 0.902, read-out: LUCIFERASE INFECTION ASSAY - IC50) was found to be 0.0873 µM.

Take `O=C(NC(=O)c1cc(Br)cc(Br)c1)Nc1cc(C(F)(F)F)cc(C(F)(F)F)c1`: the IC90 amounted to 5.3 µM. Also, where the note is “HEPG2TOX_HILL_SLOPE 7.89, HEPG2TOX_R_SQUARED 0.4, PBLUC_HILL_SLOPE 3.95, PBLUC_R_SQUARED 0.259, read-out: LUCIFERASE INFECTION ASSAY - IC50”, the IC50 amounted to 3.04 µM.

On to `FC(F)(F)Oc1cccc(-c2cnc3ccc(-c4cncnc4)nn23)c1`, for which the IC90 is 3.91 µM. For the same compound, the IC50 (PBLUC_HILL_SLOPE 4.12, PBLUC_R_SQUARED 0.479, read-out: LUCIFERASE INFECTION ASSAY - IC50) came out at 2.29 µM.

Take `Cc1nnsc1-c1onc(C)c1C(=O)NC(=O)Nc1ccccc1`: the IC90 is over 9.61 µM. The IC50 under setting [1] was determined as 4.69 µM.

Take `Cc1ccc(S(=O)(=O)N2CCN(CC(=O)N3N=C4/C(=C/c5cccs5)CCCC4C3c3cccs3)CC2)cc1` (centres undefined): the IC90 stood at 4.41 µM. The IC50 (HEPG2TOX_HILL_SLOPE 6.4, HEPG2TOX_R_SQUARED 0.688, PBLUC_HILL_SLOPE 11.3, PBLUC_R_SQUARED 0.553, read-out: LUCIFERASE INFECTION ASSAY - IC50) came to 3.64 µM.

For `Cc1cc(C)cc(NC(=S)NC2CCCC(C)C2C)c1` (centres undefined), the 90% effect concentration (IC90) stood at 9.4 µM. The IC50 (PBLUC_HILL_SLOPE 3.85, PBLUC_R_SQUARED 0.565, read-out: LUCIFERASE INFECTION ASSAY - IC50) was 5.32 µM.

With `COc1cc(OC)cc(-c2cnc3cnc(-c4ccccc4N(C)C)cn23)c1`, the 90% effect concentration (IC90) was determined as 3.18 µM. For the same compound, the IC50 (HEPG2TOX_HILL_SLOPE 1.54, HEPG2TOX_R_SQUARED 0.879, PBLUC_HILL_SLOPE 8.17, PBLUC_R_SQUARED 0.657, read-out: LUCIFERASE INFECTION ASSAY - IC50) is 2.43 µM.

Regarding `CCS(=O)(=O)c1ccc2oc(NC(=O)C3CCC3)nc2c1`, the IC90 is over 10 µM. Moreover, the IC50 under setting [1] is over 10 µM.

As for `COc1ccc(CNc2ccc3ncc(-c4ccc(Cl)cc4)n3n2)cc1`, the IC90 was determined as 4.67 µM. Also, the IC50 (HEPG2TOX_HILL_SLOPE 3.82, HEPG2TOX_R_SQUARED 0.951, PBLUC_HILL_SLOPE 9.74, PBLUC_R_SQUARED 0.491, read-out: LUCIFERASE INFECTION ASSAY - IC50) was 3.73 µM.

As to `Fc1ccc(N2CCN(c3nc(CN4CCOCC4)nc4scc(-c5ccccc5)c34)CC2)cc1`, the IC90 is over 10 µM. Also, the IC50 (HEPG2TOX_HILL_SLOPE 0.184, HEPG2TOX_R_SQUARED 0.0625, read-out: LUCIFERASE INFECTION ASSAY - IC50) was over 10 µM.

Take `CCNC(=O)c1cccc(NC(=O)CCC(=O)c2cc(C)ccc2C)c1`: the IC90 was over 10 µM. Moreover, under setting [1], the IC50 was over 10 µM.

On to `CN1C(=O)N(CCc2ccccc2)C(=O)C12CCN(Cc1ccc3c(c1)Cc1ccccc1-3)CC2`, for which the IC90 is over 7.09 µM. Besides, the IC50 under setting [1] amounted to 6.49 µM.

As for `CN1CCN(c2ccc(Cl)cc2NC(=O)Nc2cc(Cl)ccc2N2CCN(C)CC2)CC1`, the IC90 was determined as 3.56 µM. Where the note is “HEPG2TOX_HILL_SLOPE 4.19, HEPG2TOX_R_SQUARED 0.986, PBLUC_HILL_SLOPE 15.5, PBLUC_R_SQUARED 0.444, read-out: LUCIFERASE INFECTION ASSAY - IC50”, the half-inhibitory concentration (IC50) was 3.09 µM.

On to `O=C(Cn1cnc2scc(-c3ccccc3)c2c1=O)Nc1ccc([N+](=O)[O-])cc1`, for which the IC90 was over 10 µM. Besides, the half-inhibitory concentration (IC50) under setting [1] is over 10 µM.

For the compound `O=C(Cn1ncc(Cl)c(Cl)c1=O)Nc1cc(Cl)ccc1[N+](=O)[O-]`, the IC90 amounted to 3.5 µM. The IC50 (FFLUC_HILL_SLOPE 13.5, FFLUC_R_SQUARED 0.43, HEPG2TOX_HILL_SLOPE 9.94, HEPG2TOX_R_SQUARED 0.973, PBLUC_HILL_SLOPE 20.4, PBLUC_R_SQUARED 0.69, read-out: LUCIFERASE INFECTION ASSAY - IC50) was 3.14 µM.

On to `Cc1ccc(C2(c3ccccc3)NC(=O)N(CC(=O)c3cccs3)C2=O)cc1C` (centres undefined), for which the IC90 stood at 6.65 µM. For the same compound, where the note is “FFLUC_HILL_SLOPE 12.5, FFLUC_R_SQUARED 0.056, HEPG2TOX_HILL_SLOPE 0.321, HEPG2TOX_R_SQUARED 0.0152, PBLUC_HILL_SLOPE 3.37, 16.8, PBLUC_R_SQUARED 0.316, 0.669, read-out: LUCIFERASE INFECTION ASSAY - IC50”, the concentration for half-maximal inhibition (IC50) turned out to be 4.11 µM.

As for `COc1ccc(-c2nc3ccc(NC(=O)Nc4ccc(OC)c(OC)c4)cn3n2)cc1`, the concentration for an effect of 90% (IC90) is over 10 µM. The IC50 under setting [1] is over 10 µM.

In the case of `Cc1ccccc1OCCN(C)C(=O)NCCc1cccs1`, the 90% effect concentration (IC90) amounted to 4.09 µM. The half-inhibitory concentration (IC50) (HEPG2TOX_HILL_SLOPE 3.22, HEPG2TOX_R_SQUARED 0.951, PBLUC_HILL_SLOPE 11.1, PBLUC_R_SQUARED 0.17, read-out: LUCIFERASE INFECTION ASSAY - IC50) was 3.35 µM.

Consider `Cc1sc2ncnc(Sc3nc4ncccn4n3)c2c1C`, for which the IC90 was over 2 µM. The IC50 under setting [1] is over 2 µM.

For the compound `CCCCNC(=O)N1CCC(C(=O)c2c(C)c(C)c(C)c(C)c2C)CC1`, the IC90 is over 9.2 µM. Besides, the IC50 under setting [1] is over 9.2 µM.

`O=C(c1cc(-c2ccccc2)nc2ccccc12)N1N=CCC1(O)C(F)(F)F` (centres undefined): the IC90 was 8.59 µM. Also, the IC50 (PBLUC_HILL_SLOPE 5.58, 3.40, PBLUC_R_SQUARED 0.0168, 0.865, read-out: LUCIFERASE INFECTION ASSAY - IC50) was determined as 4.5 µM.

Regarding `CN(C)c1cccc(-c2cnc3cnc(-c4cccc(NS(C)(=O)=O)c4)cn23)c1`, the IC90 is over 8.1 µM. Also, where the note is “HEPG2TOX_HILL_SLOPE 7.18, HEPG2TOX_R_SQUARED 0.638, PBLUC_HILL_SLOPE 3.24, PBLUC_R_SQUARED 0.204, read-out: LUCIFERASE INFECTION ASSAY - IC50”, the IC50 worked out at 4.82 µM.

Take `Clc1ccccc1C(CNc1ncnc2sccc12)N1CCCC1` (centres undefined): the IC90 was over 10 µM. For the same compound, where the note is “HEPG2TOX_HILL_SLOPE 0.371, HEPG2TOX_R_SQUARED 0.706, PBLUC_HILL_SLOPE 3.78, PBLUC_R_SQUARED 0.473, read-out: LUCIFERASE INFECTION ASSAY - IC50”, the IC50 is 7.08 µM.

With `CNc1nc2cnc(Nc3cccc(C(C)C)c3)cc2n1CCOC`, the 90% effect concentration (IC90) was over 10 µM. Where the note is “HEPG2TOX_HILL_SLOPE 0.218, HEPG2TOX_R_SQUARED 0.135, read-out: LUCIFERASE INFECTION ASSAY - IC50”, the IC50 was over 10 µM.

For `O=C(N1CCC(C(c2ccccc2)c2ccccc2)CC1)C(Cl)(Cl)Cl`, the IC90 was over 8.32 µM. For the same compound, the half-inhibitory concentration (IC50) (FFLUC_HILL_SLOPE 23.3, FFLUC_R_SQUARED 0.47, HEPG2TOX_HILL_SLOPE 6.45, HEPG2TOX_R_SQUARED 0.799, read-out: LUCIFERASE INFECTION ASSAY - IC50) was over 8.32 µM.

`CCCCNc1nc(-c2ccccc2)c(C(=O)OCC)cc1C#N`: the IC90 is 9.48 µM. The IC50 (HEPG2TOX_HILL_SLOPE 4.31, HEPG2TOX_R_SQUARED 0.989, PBLUC_HILL_SLOPE 14.5, PBLUC_R_SQUARED 0.263, read-out: LUCIFERASE INFECTION ASSAY - IC50) came out at 8.14 µM.

Turning to `O=C(Nc1ccc(F)cc1)OCCSc1ccc([N+](=O)[O-])c2nonc12`, the concentration for an effect of 90% (IC90) is over 8.72 µM. Also, the half-maximal inhibitory concentration (IC50) under setting [1] was over 8.72 µM.

In the case of `CN(C)C(CNc1ncnc2sc(-c3ccccc3)cc12)c1ccco1` (centres undefined), the IC90 is over 10 µM. In addition, the IC50 (PBLUC_HILL_SLOPE 12.3, PBLUC_R_SQUARED 0.199, read-out: LUCIFERASE INFECTION ASSAY - IC50) was 9.76 µM.

Take `Cc1ccc(-n2nc(C)c(NC(=O)Cn3c(NCc4ccccc4)nc4ccccc43)c2C)cc1`: the IC90 was over 10 µM. For the same compound, the IC50 under setting [1] was over 10 µM.

Regarding `CC(C)(C)c1ccc(-c2cnc3cnc(-c4ccncc4)cn23)cc1`, the IC90 was determined as 4.79 µM. For the same compound, the IC50 (HEPG2TOX_HILL_SLOPE 0.197, HEPG2TOX_R_SQUARED 0.782, PBLUC_HILL_SLOPE 7.81, PBLUC_R_SQUARED 0.726, read-out: LUCIFERASE INFECTION ASSAY - IC50) is 3.62 µM.

The values are drawn from ChEMBL document CHEMBL4483862, “Open-source discovery of chemical leads for next-generation chemoprotective antimalarials” (2018).
